Structures are written as SMILES.

By IC50 is commonly meant the concentration that gives 50% inhibition. High values mean lower potency, low ones higher potency. By EC50 is commonly meant the concentration at which the effect is half-maximal. Low readings indicate an effect from little substance, high ones a need for much substance.

One test deals with T1, HCV NS5B RNA-dependent RNA polymerase (Hepatitis C virus genotype 1b, UniProt P26663).
T1 construct: RNA-dependent RNA polymerase (NS5B) of the hepatitis C virus (HCV)
T1 sequence (P26663 2420-2955): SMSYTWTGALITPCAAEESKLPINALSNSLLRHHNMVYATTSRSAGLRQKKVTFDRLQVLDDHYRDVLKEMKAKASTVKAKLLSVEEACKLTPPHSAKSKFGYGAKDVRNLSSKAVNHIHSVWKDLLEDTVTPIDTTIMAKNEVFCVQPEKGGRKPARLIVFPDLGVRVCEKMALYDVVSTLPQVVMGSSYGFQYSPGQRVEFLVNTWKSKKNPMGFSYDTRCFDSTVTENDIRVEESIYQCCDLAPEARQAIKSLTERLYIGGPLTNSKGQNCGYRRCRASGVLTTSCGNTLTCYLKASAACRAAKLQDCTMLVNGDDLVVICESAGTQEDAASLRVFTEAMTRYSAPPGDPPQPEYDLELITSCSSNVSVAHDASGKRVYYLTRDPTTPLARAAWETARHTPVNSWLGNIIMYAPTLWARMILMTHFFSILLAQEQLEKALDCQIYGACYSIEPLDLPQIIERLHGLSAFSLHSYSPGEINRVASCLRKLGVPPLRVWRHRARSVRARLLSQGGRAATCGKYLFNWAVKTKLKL
As to the kind of experiment: Assay for inhibition of HCV NS5B polymerase (heteromeric RNA template, 3H-UTP incorporation). It counts as biochemical. Conditions: activity ranges. As for the experimental part:
The effectiveness of the compounds of the present invention as inhibitors of HCV NS5B RNA-dependent RNA polymerase (RdRp) was measured in the following assay.
A. Assay for Inhibition of HCV NS5B Polymerase:
This assay was used to measure the ability of the nucleoside derivatives of the present invention to inhibit the enzymatic activity of the RNA-dependent RNA polymerase (NS5B) of the hepatitis C virus (HCV) on a heteromeric RNA template.
Assay Buffer Conditions: (52.5 μL-total/reaction) • 20 mM Tris, pH 7.5 • 45 mM KCl • 2 mM MgCl2 • 0.01% Triton X-100 • 1 μg BSA, DNase Free • 1 mM DTT • 2 nM DC55-1b.BK or 10 nM DC55-2b.2 • 20 nM heterogeneous template dCoh • UTP 1 uM • ATP 1 uM • CTP 1 uM • GTP 1 uM • 3H-UTP 1,000,000 cpm • 2.5 μl reaction inhibitor compound in H2O
The compounds were tested at various concentrations up to 100 μM final concentration. Nucleoside derivatives were pipetted into wells of a 96-well plate. The enzyme diluted in the reaction buffer was pipetted into the wells and incubated at room temperature for 10 minutes; then the template dCoh was added and incubated for 10 minutes at room temperature. The reaction was initiated by addition of a mixture of nucleotide triphosphates (NTP's), including the radiolabeled UTP, and allowed to proceed at room temperature for 2 hours. Blank samples were done omitting the dCoh template. The reaction was quenched by addition of 50 ul TCA 20% (trichloroacetic acid)/NaPPi 20 mM and the plates were put in ice for 5 minutes. Then, the mixtures were filtered onto Unifilter GF/B 96-well plates (PerkinElmer), washed with TCA 2.5%. P 50 ul/well of scintillator solution (Microscint 20, PerkinElmer) were added and the plates were counted in a scintillator counter.
The percentage of inhibition was calculated according to the following equation: % Inhibition=[1−(cpm in test reaction−cpm in blank)/(cpm in control reaction−cpm in blank)]×100.
Representative compounds were tested in the HCV NS5B polymerase assay and results are reported as IC50 activity ranges in Table B
Regarding `C[C@@]1(O)[C@H](O)[C@@H](COP(=O)(O)OP(=O)(O)OP(=O)(O)O)O[C@H]1n1cc2c3c(ncnc31)NC(=O)c1ccccc1-2` [Compound 5, 2-[5-O-(hydroxy{[hydroxy(phosphonooxy)phosphoryl]oxy}phosphoryl)-2-C-methyl-beta-D-ribofuranosyl]-2,6-dihydro-7H-2,3,5,6-tetraazadibenzo[cd,h]azulen-7-one], the IC50 is < 1 µM.
`C[C@@]1(O)[C@H](O)[C@@H](COP(=O)(O)OP(=O)(O)OP(=O)(O)O)O[C@H]1n1cc2c3c(ncnc31)NCc1ccccc1-2` [Compound 6, 2-[5-O-(hydroxy{[hydroxy(phosphonooxy)phosphoryl]oxy}phosphoryl)-2-C-methyl-beta-D-ribofuranosyl]-6,7-dihydro-2H-2,3,5,6-tetraazadibenzo[cd,h]azulene] gave an IC50 of 1 to 30 µM.
Molecule `C[C@@]1(O)[C@H](O)[C@@H](COP(=O)(O)OP(=O)(O)OP(=O)(O)O)O[C@H]1n1cc2c3c(ncnc31)NCc1sccc1-2` [Compound 7, 2-[5-O-(hydroxy{[hydroxy(phosphonooxy)phosphoryl]oxy}phosphoryl)-2-C-methyl-beta-D-ribofuranosyl]-6,7-dihydro-2H-8-thia-2,3,5,6-tetraazabenzo[cd]cyclopenta[h]azulene] returned an IC50 of 1 to 30 µM.
In the case of `C[C@@]1(O)[C@H](O)[C@@H](COP(=O)(O)OP(=O)(O)OP(=O)(O)O)O[C@H]1n1cc2c3c(ncnc31)NC(=O)c1sccc1-2` [Compound 8, 2-[5-O-(hydroxy{[hydroxy(phosphonooxy)phosphoryl]oxy}phosphoryl)-2-C-methyl-beta-D-ribofuranosyl]-2,6-dihydro-7H-8-thia-2,3,5,6-tetraazabenzo[cd]cyclopenta[h]azulen-7-one], the IC50 is < 1 µM.

A further test deals with HuH-7 cells containing a subgenomic HCV Replicon. The test is described as follows: Assay for inhibition of HCV RNA replication (subgenomic replicon, in situ RNase protection SPA). It counts as cell-based. As to conditions: Hepatitis C virus; HCV replication assay in HuH-7 replicon cells, activity ranges. As for the experimental part:
B. Assay for Inhibition of HCV RNA Replication:
The compounds of the present invention were also evaluated for their ability to affect the replication of Hepatitis C Virus RNA in cultured hepatoma (HuH-7) cells containing a subgenomic HCV Replicon. The details of the assay are described below. This Replicon assay is a modification of that described in V. Lohmann, F. Korner, J-O. Koch, U. Herian, L. Theilmann, and R. Bartenschlager, “Replication of a Sub-genomic Hepatitis C Virus RNAs in a Hepatoma Cell Line,” Science 285:110 (1999).
The assay was an in situ Ribonuclease protection, Scintillation Proximity based-plate assay (SPA). 10,000-40,000 cells were plated in 100-200 μL of media containing 0.8 mg/mL G418 in 96-well cytostar plates (Amersham). Compounds were added to cells at various concentrations up to 100 μM in 1% DMSO at time 0 to 18 h and then cultured for 24-96 h. Cells were fixed (20 min, 10% formalin), permeabilized (20 min, 0.25% Triton X-100/PBS) and hybridized (overnight, 50° C.) with a single-stranded ^33P RNA probe complementary to the (+) strand NS5B (or other genes) contained in the RNA viral genome. Cells were washed, treated with RNAse, washed, heated to 65° C. and counted in a Top-Count Inhibition of replication was read as a decrease in counts per minute (cpm).
Human HuH-7 hepatoma cells, which were selected to contain a subgenomic replicon, carry a cytoplasmic RNA consisting of an HCV 5′ non-translated region (NTR), a neomycin selectable marker, an EMCV IRES (internal ribosome entry site), and HCV non-structural proteins NS3 through NS5B, followed by the 3′ NTR.
Representative compounds were tested in the HCV replication assay and results are reported as EC50 activity ranges in Table C
Background: Replicon systems follow genome replication, usually without infectious particles.
Turning to `CC1(O)C(n2cc3c4c(ncnc42)NC(=O)c2sccc2-3)O[C@H](CO)[C@H]1O` (single isomer, unassigned) [Compound 3, 2-(2-C-methyl-beta-D-ribofuranosyl)-2,6-dihydro-7H-8-thia-2,3,5,6-tetraazabenzo[CD]cyclopenta[H]azulen-7-one], the EC50 was < 30 µM.
On to `CC1(O)C(n2cc3c4c(ncnc42)NCc2sccc2-3)O[C@H](CO)[C@H]1O` (single isomer, unassigned) [Compound 4, 2-(2-C-methyl-beta-D-ribofuranosyl)-6,7-dihydro-2H-8-thia-2,3,5,6-tetraazabenzo[CD]cyclopenta[H]azulene], for which the EC50 is < 30 µM.
For the molecule `C[C@@]1(O)[C@H](O)[C@@H](CO)O[C@H]1n1cc2c3c(ncnc31)NC(=O)c1ccccc1-2` [Compound 1, 2-(2-C-methyl-beta-D-ribofuranosyl)-2,6-dihydro-7H-2,3,5,6-tetraazadibenzo[C,D,H]azulen-7-one], the EC50 was < 30 µM.
For the molecule `C[C@@]1(O)[C@H](O)[C@@H](CO)O[C@H]1n1cc2c3c(ncnc31)NCc1ccccc1-2` [Compound 2, 2-(2-C-methyl-beta-D-ribofuranosyl)-6,7-dihydro-2H-2,3,5,6-tetraazadibenzo[cd,h]azulene], the EC50 was 30 to 50 µM.

These data come from patent US8183216B2, “Nucleoside derivatives as inhibitors of viral polymerases” (Istituto Di Ricerche Di Biologia Molecolare P. Angeletti …, priority 2007, dated 2012).
